Measured values: US20250388575A1, “HETEROBIFUNCTIONAL COMPOUNDS AND METHODS OF TREATING DISEASE” (Halda Therapeutics OpCo, Inc., priority 2022, published 2025)
Like-named read-outs stand apart in the source and are kept apart here.

Tests used:
[1] = tested on: T-Rex 293 cell line SC3 cells having increased expression of androgen receptor protein; test: Cellular growth inhibition, T-Rex 293 SC3 cells with increased androgen receptor expression (doxycycline), CellTiter-Glo; format: cell-based; conditions: T-Rex 293 SC3 cells with increased androgen receptor expression (exposed to 10 ng/mL doxycycline), 72 hours, CellTiter-Glo; read-out: GI50
Outline: (§1)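 SC3, a T-Rex 293 clone with doxycycline-inducible wild-type androgen receptor, was seeded in phenol red-free DMEM with 10% charcoal-dextran FBS, with or without 10 ng/mL doxycycline. Compound added at 24 h (0.5% DMSO) for 72 h at 37° C. CellTiter-Glo 2.0 luminescence; GI50 from four-parameter fit.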

[2] = tested on: T-Rex 293 cell line SC3 cells lacking increased expression of androgen receptor protein; test: Cellular growth inhibition, T-Rex 293 SC3 cells lacking increased androgen receptor expression (no doxycycline), CellTiter-Glo; format: cell-based; conditions: T-Rex 293 SC3 cells lacking increased androgen receptor expression (not exposed to doxycycline), 72 hours, CellTiter-Glo; read-out: GI50
Outline: as §1

VCaP cells = test: Cellular growth inhibition assay for VCaP cells, CellTiter-Glo; format: cell-based, human; conditions: VCaP cells, 72 hours, CellTiter-Glo, read-out: GI50
Outline: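 GI50 values come from four-parameter curve fits of luminescence data normalized to a zero baseline. Compound, in medium with 0.5% DMSO, was added one day after plating and left for 72 h before CellTiter-Glo 2.0 addition.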

T47D cells = test: Cellular growth inhibition assay for T47D cells, CellTiter-Glo; format: cell-based, human; conditions: 72 hours treatment, CellTiter-Glo 2.0
Method: T47D cells were purchased from American Type Cell Culture (ATCC Cat #HTB-133) and then seeded on poly-D-lysine coated, black clear-bottom 384-well plates at 3000/well in 25 μL Dulbecco's Modified Eagle Medium (DMEM) supplemented with 10% w/w Fetal bovine serum (FBS), 0.2 units/mL recombinant human insulin (Gibco Cat #12585014), and 1% w/w Pen-Strep. Pen-Strep is a commercially available mixture of penicillin G and streptomycin, which is used in mammalian cell culture media to prevent bacterial contamination. Dulbecco's Modified Eagle Medium (DMEM) supplemented with 10% w/w fetal bovine serum (FBS), 0.2 units/mL recombinant human insulin, and 1% w/w Pen-Strep is herein referred to as Treatment Medium. Following seeding of cells in the plates, the plates were spun at 300×g for 30 seconds, then equilibrated to room temperature for 30 minutes, and then deposited in a humidified tissue culture incubator maintained at 37° C. with 5% CO2.
At 24 hours after seeding of the cells, dilutions of test compound were prepared in DMSO and dissolved in Treatment Medium, to achieve a final DMSO concentration of 0.5% w/w, thereby providing the Test Compound Solution. A 25 μL aliquot of the Test Compound Solution was added to cells in the well plates. An equal volume of a solution containing DMSO and Treatment Medium was used as a negative control. Following treatment of cells with Test Compound Solution or said equal volume of a solution containing DMSO and Treatment Medium, the plates were spun at 300×g for 30 seconds, and then left in an incubator for 72 hours.
At the end of the treatment duration, cell viability was quantified with CellTiter-Glo 2.0 reagent (Promega Cat #G9243). For this purpose, plates were equilibrated to room temperature for 30 minutes, and then 25 μL of CellTiter-Glo 2.0 reagent was added to cells in the plate wells. Plates were then agitated on a shaker for two minutes at 500 rpm and subsequently incubated at room temperature for 10 minutes. Following incubation, the plates were spun at 3000×g for 30 seconds, then sealed with an optical adhesive cover, and luminescence readings were measured with an EnVision Plate Reader (Perkin Elmer).
Data was normalized using zero luminescence for baseline. A four-parameter non-linear regression curve fit was applied to dose-response data in GraphPad Prism data analysis software to determine the half-maximal growth inhibitory concentration (GI50) for each test compound.

## Cn1cc(-c2cc(C(C)(C)O)ccc2Oc2cc(F)c(CCC3CCN(c4ccc(C(=O)N[C@H]5CC[C@H](Oc6ccc(C#N)c(Cl)c6)CC5)nn4)CC3)cc2F)c2cc[nH]c2c1=O [I-116]
[1]
  GI50: < 500 nM
[2]
  GI50: 500 to 1500 nM
VCaP cells
  GI50: < 500 nM
T47D cells
  GI50: < 500 nM

## CCS(=O)(=O)c1ccc(Oc2ccc(CC3CCN(c4ccc(C(=O)N[C@H]5CC[C@H](Oc6ccc(C#N)c(Cl)c6)CC5)nn4)CC3)c(F)c2)c(-c2cn(C)c(=O)c3[nH]ccc23)c1 [I-80]
[1]
  GI50: < 500 nM
[2]
  GI50: < 500 nM
VCaP cells; Homo sapiens
  GI50: < 500 nM
T47D cells; Homo sapiens
  GI50: < 500 nM

## Cn1cc(-c2cc(S(=O)(=O)C3CC3)ccc2Oc2ccc(CCC3CCN(c4ccc(C(=O)N[C@H]5CC[C@H](Oc6ccc(C#N)c(Cl)c6)CC5)nn4)CC3)cc2)c2cc[nH]c2c1=O [I-76]
[1]
  GI50: < 500 nM
[2]
  GI50: < 500 nM
VCaP cells
  GI50: < 500 nM
T47D cells
  GI50: < 500 nM

## CCS(=O)(=O)c1ccc(Oc2cccc(CCCC3CCN(c4ncc(C(=O)N[C@H]5CC[C@H](Oc6ccc(C#N)c(Cl)c6)CC5)cn4)CC3)c2)c(-c2cn(C)c(=O)c3[nH]ccc23)c1 [I-66]
[1]
  GI50: < 500 nM
[2]
  GI50: < 500 nM
VCaP cells
  GI50: < 500 nM
T47D cells
  GI50: < 500 nM

## CCS(=O)(=O)c1ccc(Oc2ccc(OCC3CCN(c4ccc(C(=O)N[C@H]5CC[C@H](Oc6ccc(C#N)c(Cl)c6)CC5)nn4)CC3)cc2F)c(-c2cn(C)c(=O)c3[nH]ccc23)c1 [I-43]
[1]
  GI50: < 500 nM
[2]
  GI50: < 500 nM
VCaP cells
  GI50: < 500 nM
T47D cells
  GI50: < 500 nM

## CCS(=O)(=O)Cc1ccc(OC2CC(OCC3CCN(c4ccc(C(=O)NC5CCC(Oc6ccc(C#N)c(Cl)c6)CC5)nn4)CC3)C2)c(-c2cn(C)c(=O)c3[nH]ccc23)c1 (stereo not shown) [I-240, N-((1r,4r)-4-(3-chloro-4-cyanophenoxy)cyclohexyl)-6-(4-(((1r,3r)-3-(4-((ethylsulfonyl)methyl)-2-(6-methyl-7-oxo-6,7-dihydro-1H-pyrrolo[2,3-c]pyridin-4-yl)phenoxy)cyclobutoxy)methyl)piperidin-1-yl)pyridazine-3-carboxamide]
[1]
  GI50: < 500 nM
[2]
  GI50: < 500 nM
VCaP cells
  GI50: < 500 nM
T47D cells
  GI50: < 500 nM

## Cn1cc(-c2cc(C(C)(C)O)ccc2Oc2ccc(N3CC(CC4CN(c5ccc(C(=O)N[C@H]6CC[C@H](Oc7ccc(C#N)c(Cl)c7)CC6)nn5)C4)C3)cc2)c2cc[nH]c2c1=O [I-149]
[1]
  GI50: < 500 nM
[2]
  GI50: < 500 nM
VCaP cells; Homo sapiens
  GI50: < 500 nM
T47D cells; Homo sapiens
  GI50: < 500 nM

## CCS(=O)(=O)c1ccc(Oc2ccc(CC3CN(c4ccc(C(=O)N[C@H]5CC[C@H](Oc6ccc(C#N)c(Cl)c6)CC5)nn4)C3)cc2)c(-c2cn(C)c(=O)c3[nH]ccc23)c1 [I-77]
[1]
  GI50: < 500 nM
[2]
  GI50: < 500 nM
VCaP cells; Homo sapiens
  GI50: < 500 nM
T47D cells; Homo sapiens
  GI50: < 500 nM

## CN(C1CCN(c2ccc(C(=O)N[C@H]3CC[C@H](Oc4ccc(C#N)c(Cl)c4)CC3)nn2)CC1)C1CN(c2cccc(Oc3ccc(C(C)(C)O)cc3-c3cn(C)c(=O)c4[nH]ccc34)c2F)C1 [I-142]
[1]
  GI50: < 500 nM
[2]
  GI50: < 500 nM
VCaP cells; Homo sapiens
  GI50: < 500 nM
T47D cells; Homo sapiens
  GI50: < 500 nM

## CCS(=O)(=O)c1ccc(Oc2ccc(CCCC3CN(c4ccc(C(=O)N[C@H]5CC[C@H](Oc6ccc(C#N)c(Cl)c6)CC5)nn4)C3)cc2)c(-c2cn(C)c(=O)c3[nH]ccc23)c1 [I-68]
[1]
  GI50: < 500 nM
[2]
  GI50: < 500 nM
VCaP cells
  GI50: < 500 nM
T47D cells
  GI50: < 500 nM

## CCS(=O)(=O)c1ccc(Oc2c(F)cc(CCC3CCN(c4ccc(C(=O)N[C@H]5CC[C@H](Oc6ccc(C#N)c(Cl)c6)CC5)nn4)CC3)cc2F)c(-c2cn(C)c(=O)c3[nH]ccc23)c1 [I-58]
[1]
  GI50: < 500 nM
[2]
  GI50: > 3000 nM
VCaP cells
  GI50: < 500 nM
T47D cells
  GI50: < 500 nM

## C=CC1CN(c2ccc(C(=O)N[C@H]3CC[C@H](Oc4ccc(C#N)c(Cl)c4)CC3)nn2)CC1c1ccc(Oc2ccc(S(=O)(=O)CC)cc2-c2cn(C)c(=O)c3[nH]ccc23)cc1 (stereo partly shown) [I-87]
[1]
  GI50: < 500 nM
[2]
  GI50: 500 to 1500 nM
VCaP cells
  GI50: < 500 nM
T47D cells
  GI50: < 500 nM

## Cn1cc(-c2cc(S(C)(=O)=O)ccc2OC(CCCCN2CCN(c3ccc(C(=O)NC4CCC(Oc5ccc(C#N)c(Cl)c5)CC4)nn3)CC2)C2CC2)c2cc[nH]c2c1=O (stereo not shown) [I-244, N-[4-(3-chloro-4-cyano-phenoxy)cyclohexyl]-6-[4-[5-cyclopropyl-5-[2-(6-methyl-7-oxo-1H-pyrrolo[2,3-c]pyridin-4-yl)-4-methylsulfonyl-phenoxy]pentyl]piperazin-1-yl]pyridazine-3-carboxamide]
[1]
  GI50: < 500 nM
[2]
  GI50: < 500 nM
VCaP cells; Homo sapiens
  GI50: < 500 nM
T47D cells; Homo sapiens
  GI50: < 500 nM

## Cn1cc(-c2cc(C3CCS(=O)(=O)CC3)ccc2Oc2ccc(CCC3CCN(c4ccc(C(=O)NC5CCC(Oc6ccc(C#N)c(Cl)c6)CC5)nn4)CC3)cc2)c2cc[nH]c2c1=O (stereo not shown) [I-250, N-[4-(3-chloro-4-cyano-phenoxy)cyclohexyl]-6-[4-[2-[4-[4-(1,1-dioxothian-4-yl)-2-(6-methyl-7-oxo-1H-pyrrolo[2,3-c]pyridin-4-yl)phenoxy]phenyl]ethyl]-1-piperidyl]pyridazine-3-carboxamide]
[1]
  GI50: < 500 nM
[2]
  GI50: < 500 nM
VCaP cells; Homo sapiens
  GI50: 500 to 1500 nM
T47D cells; Homo sapiens
  GI50: 500 to 1500 nM

## CCS(=O)(=O)Nc1ccc(Oc2cccc(CCC3CCN(c4ccc(C(=O)N[C@H]5CC[C@H](Oc6ccc(C#N)c(Cl)c6)CC5)nn4)CC3)c2F)c(-c2cn(C)c(=O)c3[nH]ccc23)c1 [I-21]
[1]
  GI50: < 500 nM
[2]
  GI50: > 3000 nM
VCaP cells; Homo sapiens
  GI50: < 500 nM
T47D cells; Homo sapiens
  GI50: < 500 nM

## CCS(=O)(=O)c1ccc(Oc2ccc(CCC3CCN(c4ccc(C(=O)N[C@H]5CC[C@H](Oc6ccc(C#N)c(Cl)c6)CC5)nn4)CC3)c(C(F)(F)F)c2)c(-c2cn(C)c(=O)c3[nH]ccc23)c1 [I-85]
[1]
  GI50: < 500 nM
[2]
  GI50: < 500 nM
VCaP cells
  GI50: < 500 nM
T47D cells
  GI50: < 500 nM

## CCS(=O)(=O)c1ccc(Oc2ccc(CCC3CCN(c4ccc(C(=O)N[C@H]5CC[C@H](Oc6ccc(C#N)c(Cl)c6)CC5)nn4)CC3)nn2)c(-c2cn(C)c(=O)c3[nH]ccc23)c1 [I-221]
[1]
  GI50: < 500 nM
[2]
  GI50: < 500 nM
VCaP cells
  GI50: < 500 nM
T47D cells
  GI50: < 500 nM

## CN(C1CCN(c2ccc(C(=O)N[C@H]3CC[C@H](Oc4ccc(C#N)c(Cl)c4)CC3)nn2)CC1)C1CN(c2ccc(Oc3ccc(C(C)(C)O)cc3-c3cn(C)c(=O)c4[nH]ccc34)cc2)C1 [I-140]
[1]
  GI50: < 500 nM
[2]
  GI50: < 500 nM
VCaP cells; Homo sapiens
  GI50: < 500 nM
T47D cells; Homo sapiens
  GI50: < 500 nM

## CN(C1CN(c2ccc(Oc3ccc(C(C)(C)O)cc3-c3cn(C)c(=O)c4[nH]ccc34)cc2)C1)C1CN(c2ccc(C(=O)N[C@H]3CC[C@H](Oc4ccc(C#N)c(Cl)c4)CC3)nn2)C1 [I-143]
[1]
  GI50: < 500 nM
[2]
  GI50: > 3000 nM
VCaP cells
  GI50: < 500 nM
T47D cells
  GI50: < 500 nM

## CN(CCCc1ccc(Oc2ccc(C(C)(C)O)cc2-c2cn(C)c(=O)c3[nH]ccc23)cc1)c1ccc(C(=O)N[C@H]2CC[C@H](Oc3ccc(C#N)c(Cl)c3)CC2)nn1 [I-105]
[1]
  GI50: < 500 nM
[2]
  GI50: < 500 nM
VCaP cells
  GI50: < 500 nM
T47D cells
  GI50: 1500 to 3000 nM

## CCS(=O)(=O)c1ccc(Oc2ccc(CCCCC3CN(c4ccc(C(=O)N[C@H]5CC[C@H](Oc6ccc(C#N)c(Cl)c6)CC5)nn4)C3)cc2)c(-c2cn(C)c(=O)c3[nH]ccc23)c1 [I-73]
[1]
  GI50: < 500 nM
[2]
  GI50: < 500 nM
VCaP cells
  GI50: < 500 nM
T47D cells
  GI50: < 500 nM

## CCS(=O)(=O)c1ccc(Oc2ccc(C(C)(C)N3CC4(CN(c5ccc(C(=O)N[C@H]6CC[C@H](Oc7ccc(C#N)c(Cl)c7)CC6)nn5)C4)C3)cc2)c(-c2cn(C)c(=O)c3[nH]ccc23)c1 [I-88]
[1]
  GI50: < 500 nM
[2]
  GI50: < 500 nM
VCaP cells; Homo sapiens
  GI50: < 500 nM
T47D cells; Homo sapiens
  GI50: < 500 nM
